Measured values as given in patent US20230080252A1, “ANTICANCER ADJUVANT AND PHARMACEUTICAL COMPOSITION FOR TREATING ANTICANCER-AGENT-RESISTANT CANCER, AND KIT COMPRISING SAME” (DONG-A UNIVERSITY RESEARCH FOUNDATION FOR INDUSTRY-ACADEMY …, priority 2020, published 2023).

Legend:
[1] = test system: p-CHK1 (ATR-CHK1 pathway); experiment: CHK1 phosphorylation (immunoblot / immunostaining) after UV or HU; assay type: cell-based, human; conditions: inhibitor added after UV irradiation, fixed after 2 hours, anti-p-CHK1 immunostaining
From the text: FIG. 1D is a quantification of the percentage of p-CHK1-positive cells from UV-treated data of FIG. 1C. […] In each experiment, >100 cells were randomly chosen to determine the percentage of p-CHK1-positive cells.
The two DNA damage response kinases ATR and ATM play key roles in the protection of genomic integrity from genotoxic stress by sensing a single-strand break and DSB (Double strand break), respectively. To identify the functions of TTP in the DNA damage response, we first analyzed the phosphorylation levels of CHK1 (p-CHK1) and CHK2 (p-CHK2) as readouts of ATR and ATM activity, respectively.
Then, we treated cells with HU, another CHK1 phosphorylation-triggering agent which depletes the deoxynucleoside triphosphate pool, thus inducing the RSR (Replication Stress Response).

[2] = test system: A549 (human lung carcinoma) cells; experiment: DNA fiber analysis of replication forks; assay type: cell-based; conditions: unperturbed A549 cells; IdU and CldU 20 min each; control 0.36 μm/min
Method: The ratios of CldU to IdU were calculated from active replication forks. […] Single-strand DNA (ssDNA; blue) was labelled with ssDNA-specific antibodies. Percentages of stalled forks were calculated by dividing the number of red-only tracts (stalled forks) by the total number of red-only plus red-green tracts (stalled and restarted forks, respectively). Analyses were performed on a minimum of 200 individual DNA fibers. […] The recovery of S phase progression is presented as a percentage of EdU positive cells at 6 h after the release from HU treatment. In each experiment, >100 cells were randomly chosen to determine the percentage of EdU-positive cells. […] The ratio of CldU to IdU in terms of length was calculated from active replication forks (red-green). […]
(1) ATR-CHK1 pathway accounts for the central replication stress responses and once activated it helps the cell to survive and faithfully complete DNA replication under stress. Having shown that TTP is found to be implicated in the ATR-CHK1 activation, as in Example 1 above, we decided to examine the effect of TTP on the replication fork stability using DNA fiber analysis, the clearest read-out of replication stress which relies on the incorporation of nucleotide analogues. […]
(3) We next examined the involvement of TTP in stalled fork protection. […] We then analyzed the relative shortening of CldU fiber as indicative of fork degradation. […]

CNCc1ccc(-c2cc(-c3nc(-c4ccc(S(=O)(=O)C(C)C)cc4)cnc3N)on2)cc1 [VE-822]
residual p-CHK1 signal in TTP-deficient cells [1]: vanished

siClaspin: siRNA (SEQ ID NO: 20) introduced into cells to make Claspin-deficient cells (AACCUUGCUUAGAGCUGAGUCUUCA; listed as RNA, chemistry not given here)
average fork velocity [2]: 0.22 μm/min
